The test system of data set [1] is Chinese hamster ovary (CHO) cells. Kind of data set: In vitro genotoxicity screen in CHO cells. Type of data set: cell-based. Conditions: approximately 3 hours exposure in the dark, dilutions 1-1000 μg/ml. The text has this: The positive control was methylmethane sulfonate.
Coverslips were mounted with Permount.

Data set [2] deals with Salmonella typhimurium TA102. Kind of data set: Ames assay (dark mutagenicity), strain TA102. The following applies: TA102 at 500 μg/plate. The source says:
(§1) The second property that is important in testing a compound for use in methods of the present invention is mutagenicity. The most widely used mutagen/carcinogen screening assay is the Ames test. This assay is described by D. M. Maron and B. N. Ames in Mutation Research 113: 173 ( 1983) and a specific screen is described in detail in Example 17, below. The Ames test utilizes several unique strains of Salmonella typhimurium that are histidine- dependent for growth and that lack the usual DNA repair enzymes. The frequency of normal mutations that render the bacteria independent of histidine (i.e., the frequency of spontaneous revertants) is low. The test allows one to evaluate the impact of a compound on this revertant frequency.
(§2) In this example the compounds of the present invention are tested for their dark mutagenicity using an Ames assay. The procedures used for the Salmonella mutagenicity test as described in detail by Maron and Ames were followed exactly. Maron, D. M. and B. N. Ames, Mutation Research 113: 173 ( 1983). A brief description for each procedure is given here. The tester strains TA97a, TA98, TA100, TA102, TA1537 and TA1538 were obtained from Dr. Ames. TA97a, TA98, TA1537 and TA1538 are frameshift tester strains. TA100 and TA102 are base-substitution tester strains. Upon receipt each strain was cultured under a variety of conditions to confirm the genotypes specific to the strains.
(§3) The first tests done with the strains were to determine the range of spontaneous reversion for each of the strains. With each mutagenicity experiment the spontaneous reversion of the tester strains to histidine independence was measured and expressed as the number of spontaneous revertants per plate. This served as the background controls.
(§4) For all experiments, the pre-incubation procedure was used. In this procedure one vial of each tester strain was thawed and 20 μL of this culture was added to 6 mL of Oxoid Nutrient Broth #2. This solution was allowed to shake for 10 hours at 37° C. In the pre-incubation procedure, 0.1 mL of this overnight culture was added to each of the required number of sterile test tubes. To half of the tubes 0.5 mL of a 10% S-9 solution containing Aroclor 1254 induced rat liver extract (Molecular Toxicology Inc., Annapolis, Md.), and MgCl2, KCl, glucose-6-phosphate, NADP, and sodium phosphate buffer (Sigma, St. Louis, Mo.) were added. To the other half of the tubes 0.5 mL of 0.2M sodium phospate buffer, pH 7.4, was used in place of the S-9 mixture (the -S9 samples). Finally 0.1 mL of the test solution containing either 0, 0.1, 0.5, 1, 5, 10, 50, 100, 250, or 500 μg/mL of the test compound was added. The 0.7 mL mixture was vortexed and then pre-incubated while shaking for 20 minutes at 37° C. After shaking, 2 mL of molten top agar supplemented with histidine and biotin were added to the 0.7 mL mixture and immediately poured onto a minimal glucose agar plate (volume of base agar was 20 mL). The top agar was allowed 30 minutes to solidify and then the plates were inverted and incubated for 44 hours at 37° C. After incubation the number of revertant colonies on each plate were counted. […] (“n” represents the number of replicates performed for each data point.)
(§5) Maron and Ames (1983) describe the conflicting views with regard to the statisical treatment of data generated from the test.

Data set [3] concerns Duck Hepatitis B Virus (DHBV). Kind of data set: Inactivation of DHBV in platelet concentrate, PCR amplification readout. The following applies: 5J/CM^2 UVA. How it is done: This example describes the protocol for inactivation of Duck Hepatitis B Virus (DHBV), a model for Hepatitis B Virus, using compounds of the present invention. DHBV in duck yolk was added to platelet concentrate (PC) to a final concentration of 2×10^7 particles per mL and mixed by gentle rocking for ≧15 min. […] Samples, including controls without added psoralen, were irradiated with 5J/CM^2 UVA, with mixing at 1 J/cm^2 increments. After irradiation, leukocytes and platelets were separated from virus by centrifugation. […] Samples were extracted with phenol-chloroform and chloroform, followed by ethanol precipitation. […] PCR amplicons were generated using primers pairs DCD03/DCD05 (127 bp), DCD03/DCD06 (327 bp) and DCD03/DCD07 (1072 bp). PCR was performed in a standard PCR buffer containing 0.2 mM each deoxyribonucleoside 5′-triphosphates (dATP, dGTP, dCTP, and dTTP), […], and 0.5 units Taq polymerase per […]. 30 cycles of amplification were performed with the following thermal profile: 95° C. 30 sec, 60° C. 30 sec, 72° C. 1 min. The amplification was followed by a 7 min incubation at 72° C. to yield full length products. […] was added at an amount of […] in order to detect and quantify the resulting products. Products were separated by electrophoresis on denaturing polyacrylamide slab gels and counted. The absence of signal in a given reaction was taken to indicate effective inactivation of DHBV.

A further data set has as its system R17. As to the kind of experiment: R17 bacteriophage inactivation assay (r-17 screen). It counts as cell-based, bacteriophage R17 (grown in Hfr 3000 bacteria). On the procedure: An r-17 bacteriophage assay was used in this example to predict pathogen inactivation efficiency and to determine nucleic acid binding of the photoreactive binding compounds of the present invention. In the r-17 assay, the bacteriophage was placed in a solution with each compound tested and was then irradiated. The ability of the phage to subsequently infect bacteria and inhibit their growth was measured. The bacteriophage was selected for its relatively accessible nucleic acid such that the culture growth inhibition would accurately reflect nucleic acid damage by the test compounds. The bacteriophage assay for nucleic acid binding to test compounds offers a safe and inexpensive procedure to identify compounds likely to display efficient pathogen inactivation.
The R17 was grown up in Hfr 3000 bacteria, approximate titer 5 ×10^11. (R17 and Hfr 3000 were obtained from American Tissue Culture Collection (ATCC), Washington, D.C.) The R17 phage stock was added to a solution of 15% fetal bovine serum in Dulbecco's Modified Eagles Medium (DMEM) to a final phage concentration of 10^9/mL. An aliquot (0.5 mL) was transferred to a 1.5 mL snap-top polyethylene tube. An aliquot (0.004-0.040 mL) of the test compound stock solution prepared in water, ethanol or dimethylsulfoxide at 0.80-8.0 mM was added to the tube. Compounds were tested at concentrations between 4 μM and 320 μM. […] The tubes were placed in a light device as described in EXAMPLE 1 and irradiated for between 1 and 10 minutes. Sterile 13 mL dilution tubes were prepared; each test compound required one tube with 0.4 mL of Luria broth (LB) and five tubes containing 0.5 mL of LB broth. To make the dilutions, a 0.100 mL aliquot of the irradiated solution of phage and test compound was added to the first dilution tube of 0.4 mL of media then 0.020 mL of this solution was added to the second tube of 0.5 mL medium (1:25). The second solution was then diluted serially (1:25) into the remaining tubes. To each diluted sample was added 0.050 mL of Hfr 3000 bacteria cultured overnight and 3 mL of molten LB top agar and the mixed materials were poured onto LB broth plates. After the top agar hardened, the plates were incubated at 37° C. overnight. The plaque forming units were then counted the following morning and the titer of the phage remaining after phototreatment was calculated based on the dilution factors.
The following controls were run: the “phage only” in which phage was not treated with test compound and not irradiated (listed as “starting titer” in the tables below); the “UV only” in which the phage was irradiated in the absence of test compound; and the “dark” control in which the phage/test compound solution was not irradiated before it was diluted and plated.
Compounds of the present invention were also tested at a constant concentration for varying doses of UV light. Three sets of 1.5 mL tubes were prepared containing 0.6 mL aliquots of R17 in DMEM (prepared as described above). The compound tested was added at the desired concentration and the samples were vortexed. The samples were then irradiated at intervals of 1.0 J/cm^2, until 3.0 J/cm^2 was reached. Between each 1.0 J/cm^2 interval, 100 μL was removed from each sample and placed in the first corresponding dilution tube, then five sequential dilutions were performed for each compound tested, at all 3 irradiation doses, as described above in this example.
Then 50 μL of Hfr 3000 bacteria was added to each tube, 3 mL of top agar was added and the tube contents were vortexed. The contents of each tube was poured into its own LB plate and the plates were incubated overnight at 37° C. Plaques were counted by visual inspection the following morning.

Data set [4] relates to Salmonella typhimurium TA100.
Source text: as §1, §2, §3, §4, §5

The subject of data set [5] is Salmonella typhimurium TA1538. As to the kind of experiment: Ames assay (dark mutagenicity), strain TA1538.
Source text: as §1, §2, §3, §4, §5
Background: The Ames test detects mutagens through reverse mutation in bacteria.

The subject of data set [6] is Salmonella tester strains TA97a, TA98, TA100, TA102, TA1537 and TA1538. As to the kind of experiment: Ames assay, overall assessment over the tester strains. The following applies: strains tested: TA100 and TA1538, ±S9, 5 and 10 μg/plate.
Source text: as §1, §2, §3
For all experiments, the pre-incubation procedure was used. In this procedure one vial of each tester strain was thawed and 20 μL of this culture was added to 6 mL of Oxoid Nutrient Broth #2. This solution was allowed to shake for 10 hours at 37° C. In the pre-incubation procedure, 0.1 mL of this overnight culture was added to each of the required number of sterile test tubes. To half of the tubes 0.5 mL of a 10% S-9 solution containing Aroclor 1254 induced rat liver extract (Molecular Toxicology Inc., Annapolis, Md.), and MgCl2, KCl, glucose-6-phosphate, NADP, and sodium phosphate buffer (Sigma, St. Louis, Mo.) were added. To the other half of the tubes 0.5 mL of 0.2M sodium phospate buffer, pH 7.4, was used in place of the S-9 mixture (the -S9 samples). Finally 0.1 mL of the test solution containing either 0, 0.1, 0.5, 1, 5, 10, 50, 100, 250, or 500 μg/mL of the test compound was added. […] After incubation the number of revertant colonies on each plate were counted. […]

Each structure is given as a SMILES string. Like-named read-outs stand apart in the source and are kept apart here.

Take `Cc1oc2c(CN)c3oc(=O)cc(C)c3cc2c1C` [8-aminomethyl-4,4′, 5′-trimethylpsoralen, reference compound]: the “genotoxic (toxic) concentration” value in data set [1] was determined as 10 µg/mL.

Take `COc1c2occc2cc2ccc(=O)oc12` [Compound 8-MOP, 8-Methoxypsoralen]: the mutagenic response detected entry in data set [2] is reported as “weak base-substitution mutagen”.

As to `Cc1oc2c(C)c3oc(=O)cc(C)c3cc2c1COCCN` [Compound S-59], the “PCR amplification of the 1072 bp DHBV amplicon” value in data set [3] (all concentrations (35, 70, and 100 mM)) is recorded as “complete inhibition of PCR”. Further, the “inhibition of PCR of the smaller DHBV amplicons (127 bp, 327 bp) compared with AMT” value in data set [3] (same concentrations) is on record as “inhibited PCR of the smaller amplicons better than did AMT”.

For `Cc1oc2c(C)c3oc(=O)cc(C)c3cc2c1CNCCN` [Compound 1, 4′-(4-amino-2-aza)butyl-4,5′,8-trimethylpsoralen], the “R17 inactivation efficiency compared with 8-MOP” value in the data set with R17 (32 μM, 1 minute irradiation) is recorded as “much higher R17 inactivation efficiency than does 8-MOP”. Moreover, the “LOG TITER” value in the data set with R17 (experiment 1, 32 μM cmpd, 1′ uva, phage only titer 7.7) is <1 log; in the data set with R17 (experiment 1, 32 μM cmpd, 10′ uva, phage only titer 7.7) it was <1 log; in the data set on R17 (experiment 1, compound only (32 μM), no uva, phage only titer 7.7), 7.6 log; with R17 (experiment 2, 3.2 μM cmpd, 1′ uva, phage only titer 7.8) it was 6.9 log; with R17 (experiment 2, 3.2 μM cmpd, 10′ uva, phage only titer 7.8) it was 6.1 log; with R17 (experiment 2, compound only (3.2 μM), no uva, phage only titer 7.8), 7.7 log. The “LOG TITER” value in the data set with R17 (experiment 3, 4 μM cmpd, 1′ uva, phage only titer 7.3) is 6.3 log; with R17 (experiment 3, 8 μM cmpd, 1′ uva, phage only titer 7.3), 5.6 log; in the data set on R17 (experiment 3, 16 μM cmpd, 1′ uva, phage only titer 7.3) it was 3.9 log; in the data set with R17 (experiment 3, compound only (16 μM), no uva, phage only titer 7.3), 7.3 log. Further, the revertants per plate in data set [4] (TA100 +S9, 5 μg/plate) is −24; in data set [4] (TA100 +S9, 10 μg/plate), −22; in data set [5] (TA1538 −S9, 5 μg/plate), 10; in data set [5] (TA1538 −S9, 10 μg/plate), 12. For the same compound, the “mutation in the TA100 strain” value in data set [4] (TA100, with and without S9) was “displayed mutation in the TA100 strain, but only in the absence of S9”. Also, in data set [5] (TA1538 at 5 μg/plate in the presence of S9), the mutagenic response detected entry was “weak frameshift mutagen”.

`Cc1oc2c(C)c3oc(=O)cc(C)c3cc2c1COCCCN` [Compound 4, 4′-(5-amino-2-oxa)pentyl-4,5′,8-trimethylpsoralen]: the revertants per plate in data set [4] (TA100 +S9, 5 μg/plate) is −10; in data set [4] (TA100 +S9, 10 μg/plate) it was −3; in data set [5] (TA1538 −S9, 5 μg/plate), −2; in data set [5] (TA1538 −S9, 10 μg/plate), −2. Moreover, the “mutagenicity (overall)” value in data set [6] is listed as “no mutagenicity”.

The record behind these values is patent publication US6469052B2, “Compounds for the photodecontamination of pathogens in blood” (Cerus Corporation, priority 1993, dated 2002).
